# Laboratory results as given in patent US20010034319A1, “Photothermal vascular targeting with bioreductive agents” (priority 1999, published 2001).
# Legend:
# [1] = test system: KB cells (human pharyngeal SCC); test: POR with PDL extending beyond tumor area, KB tumors in nude mice (Example VI); assay type: in vivo
# Experimental: (§1) KB cells (human pharyngeal SCC, American Type Culture Collection, Rockville, Md.) were maintained in culture medium consisting of 90% Minimal Essential medium (Gibco BRL, Grand Island, N.Y.) and 10% fetal bovine serum (Hyclone, Logan, Utah) with the addition of […] nonessential amino acid (Gibco BRL) and antibiotics (penicillin, streptomycin: Gibco BRL). The cells were grown as monolayers in Falcon T150 flasks (Becton Dickinson, Franklin Lakes, N.J.) in a 37° C. humidified incubator with 5% CO2.
# (§2) Prior to inoculation, the cells were rinsed with PBS lacking calcium and magnesium (Gibco BRL), trypsinized (Gibco BRL), counted, centrifuged at 1000 rpm for 6 min., and resuspended in normal saline for a final concentration of 1,000,000 cells/ml.
# (§3) Six- to seven-week-old nude mice (Charles River Labs, Wilmington, Mass.) were sterilely housed and fed ad libitum. Intradermal inoculation of 0.05 ml of cell suspension (50,000 cells) was performed under general anesthesia (ether) using a 30 gauge hypodermic needle. After 5 days, the majority of the tumors were visually apparent and palpable.
# (§4) The effect of treatment on tumor volumes was determined using analysis of variance. Multiple comparisons were performed using the Student-Newman-Keuls (SNK) test. P values less than 0.05 are considered significant.
# Twelve mice with 6 tumor inoculations were divided into 3 treatment groups and 1 control group. On day 5 following inoculation, the 4 groups were treated as in Example V except that the field of irradiation was extended to include a 2 to 3 mm periphery beyond the tumor edge. In addition, on the second treatment day, the fluence was raised from 10 to 15 J/cm^2. Tumor volume measurements were performed on days 0, 2, 4, 6, 8, 10, and 12 following the first treatment. Mice were weighed on day 0 and 6 following the first treatment. There were two anesthesia related deaths: one mouse from the control group and one mouse from the group receiving both PDL and POR died before day 10 and were therefore excluded from analysis.
# [2] = test system: human squamous cancer cells; test: PDL and POR on human squamous cancer cell tumors in hamster cheek pouch (Example VIII); assay type: in vivo, hamsters; settings: combined PDL (588 nm) and POR versus PDL only, FIG. 5
# Excerpt: In this example, tumors were produced in the cheek pouches of hamsters by transplantation of human squamous cancer cells according to methods well known in the art. Hamsters were divided into four treatment groups: (1) control, (2) bioreductive agent porfiromycin only (POR), (3) 588 nm pulsed dye laser only (PDL), and (4) combined PDL and POR.
# hypoxic cells = settings: compared with mitomycin C; cited from earlier work
# [3] = test system: KB cells (human pharyngeal SCC); test: Effect of POR alone on KB tumor volume in nude mice (Example IV); assay type: in vivo; settings: POR alone 2.50, 5.0, 7.5, 10.0 mg/kg ip vs saline control; days 0-13; FIG. 1
# Experimental: KB cells (human pharyngeal SCC, American Type Culture Collection, Rockville, Md.) were maintained in culture medium consisting of 90% Minimal Essential medium (Gibco BRL, Grand Island, N.Y.) and 10% fetal bovine serum (Hyclone, Logan, Utah) with the addition of 10 nM nonessential amino acid (Gibco BRL) and antibiotics (penicillin, streptomycin: Gibco BRL). The cells were grown as monolayers in Falcon T150 flasks (Becton Dickinson, Franklin Lakes, N.J.) in a 37° C. humidified incubator with 5% CO2.
# The effect of treatment on tumor volumes was determined using analysis of variance. […]
# Fifteen mice, each with 4 tumor inoculations, were divided into 4 treatment groups and 1 control group. […] The 3 orthogonal diameters of the tumors were measured at days 0, 2, 4, 6, 8, 10, and 13 following POR injection. […]
# [4] = Body weight / systemic toxicity monitoring of POR in tumor-bearing mice (Example IV); settings: POR 2.50-10.0 mg/kg ip; mice weighed days 0-13
# Experimental: Fifteen mice, each with 4 tumor inoculations, were divided into 4 treatment groups and 1 control group. Five days after tumor inoculation, the 4 treatment groups received 2.50, 5.0, 7.5, and 10.0 mg/kg intraperitoneal (ip) injections of POR (Vion Pharmaceuticals, Inc., New Haven, Conn.) dissolved in sterile water. […] All mice were anesthetized during ip injections and tumor measurements. […] The mice were weighed at the time of each tumor measurement to monitor for any systemic toxicity of POR.
# [5] = test system: KB cells (human pharyngeal SCC); test: POR with PDL limited to tumor area, KB tumors in nude mice (Example V); assay type: in vivo; settings: for effect of treatment on mean tumor volume (analysis of variance): repeated two days later, FIG. 2
# Experimental: as §1, §2, §3, §4
# Sixteen mice, each with 4 tumor inoculations, were divided into 3 treatment groups and 1 control group. On day 6 following tumor inoculation, the treatment groups received (1) ip POR only (10 mg/kg), (2) ip saline and PDL limited to tumor area (585 nm, 10 J/cm^2, 300-500 μs; Model SPTL-1a, Candela Corporation, Wayland, Mass.), or (3) ip POR (10 mg/kg) and PDL limited to the tumor area (585 nm, 10 J/cm^2, 300-500 μs). The control group received ip saline injections only. PDL irradiation was performed 15 min. after administration of POR or vehicle, using a laser handpiece that produced a 5 mm diameter irradiated spot with a uniform energy distribution on the tumor surface. An aluminum plate with holes of various diameters was used to shield areas beyond the tumor border. […]
# normal skin tissue = test: POR with PDL treatment of normal skin tissue, histologic evaluation (Example VII); assay type: in vivo, Syrian golden hamsters; settings: PDL 15 min. after ip POR; biopsies 10 min. or 2 days after irradiation; hamster flank
# Experimental: The effect on normal skin tissue of PDL irradiation with or without POR was determined using 6 adult Syrian golden hamsters. The hamsters were divided into two groups, and hair of each animal was shaved from an area of the flank. One group was irradiated with the PDL 15 min. after ip injection of POR, and the other group was irradiated without POR administration. Biopsies of treated sites were taken 10 min. or 2 days after irradiation. Specimens were fixed with formalin, embedded in paraffin, sectioned, and stained (H&E) for histologic evaluation.
structure (smiles),measurement,setting,value
"CO[C@@]12[C@H](COC(N)=O)C3=C(C(=O)C(C)=C(N)C3=O)N1C[C@H]1[C@@H]2N1C (stereo partly drawn) [POR, porfiromycin]",tumor volume versus controls (SNK test),"[1]; POR 10 mg/kg ip with PDL including 2 to 3 mm margin (10 then 15 J/cm^2), all tumors, FIG. 3",differed from the controls from day 6 onward
same,tumor volume versus controls (SNK test),"[1]; POR alone 10 mg/kg ip, all tumors, FIG. 3",differed from the controls from day 6 onward
same,"tumor volume, PDL with POR versus PDL without POR","[1]; all tumors, PDL including tumor margin, FIG. 3",no significance between the effects of PDL irradiation with and without POR at any time
same,"tumor volume, PDL with POR versus PDL without POR (SNK test)","[1]; only the largest 33% of tumors on day 0, PDL including tumor margin, FIG. 4",significant difference between PDL with and without POR at all days after day 6
same,tumor regression and remission,[2],tumor regression and remission following laser vascular targeting is enhanced
same,preferential toxicity for hypoxic cells,hypoxic cells,greater for POR than mitomycin C
same,effect of treatment on mean tumor volume (analysis of variance),[3],no significant effect of treatment at any point in time
same,effect of treatment on body weight / acute toxicity,[4],"no significant effect of treatment on body weight, or any other indication of acute toxicity"
same,effect of treatment on mean tumor volume (analysis of variance),"[5]; ip POR 10 mg/kg and PDL limited to tumor area (585 nm, 10 J/cm^2)",no significant effect of treatment at any point in time
same,skin sloughing / epithelial necrosis in laser treatment groups,"[5]; ip POR 10 mg/kg and PDL limited to tumor area, gross and histological",no gross evidence of skin sloughing or any histological evidence of epithelial necrosis
same,effect of treatment on mean tumor volume (analysis of variance),"[5]; ip POR only 10 mg/kg, days 0-13",no significant effect of treatment at any point in time
same,damage to normal skin after PDL irradiation (histologic and clinical),normal skin tissue,no microscopic or clinical evidence of epithelial necrosis or other damage to tissue structures beyond the blood vessels
